Reference: PMC6337391 (Molecules, 2019)
pIC50: −log10 of the molar value. Read-outs that look alike come from different tables or passages of the source.

How the values were obtained:
soybean lipoxygenase = biological target: T1, soybean lipoxygenase (Glycine max, UniProt P08170); experiment: biochemical; format: biochemical
T1 sequence (P08170 1-839): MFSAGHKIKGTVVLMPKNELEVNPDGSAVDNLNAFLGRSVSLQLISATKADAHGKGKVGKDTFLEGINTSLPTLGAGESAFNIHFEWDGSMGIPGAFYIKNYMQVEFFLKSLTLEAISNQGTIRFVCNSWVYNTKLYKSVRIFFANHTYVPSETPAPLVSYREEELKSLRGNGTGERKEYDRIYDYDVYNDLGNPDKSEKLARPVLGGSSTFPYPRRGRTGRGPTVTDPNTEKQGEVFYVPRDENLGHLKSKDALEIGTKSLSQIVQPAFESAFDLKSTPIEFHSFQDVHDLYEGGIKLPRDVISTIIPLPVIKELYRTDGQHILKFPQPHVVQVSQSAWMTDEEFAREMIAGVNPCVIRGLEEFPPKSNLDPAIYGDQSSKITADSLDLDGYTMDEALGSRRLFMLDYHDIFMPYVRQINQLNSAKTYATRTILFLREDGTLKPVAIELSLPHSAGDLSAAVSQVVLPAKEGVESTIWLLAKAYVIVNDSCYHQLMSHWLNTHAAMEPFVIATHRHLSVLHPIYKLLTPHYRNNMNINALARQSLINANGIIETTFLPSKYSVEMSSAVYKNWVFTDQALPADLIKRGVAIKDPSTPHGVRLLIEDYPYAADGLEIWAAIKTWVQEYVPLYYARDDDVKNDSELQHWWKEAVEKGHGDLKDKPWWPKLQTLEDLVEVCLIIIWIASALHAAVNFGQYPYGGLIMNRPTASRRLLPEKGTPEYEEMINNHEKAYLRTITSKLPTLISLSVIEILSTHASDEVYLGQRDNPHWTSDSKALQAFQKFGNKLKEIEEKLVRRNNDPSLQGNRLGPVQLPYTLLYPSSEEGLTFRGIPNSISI
How it was run: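 Soybean LOX (enzyme solution 1/9 × 10^−4 w/v in saline) incubated at room temperature with sodium linoleate ([…]) in tris buffer pH 9. Compounds added from DMSO stocks. IC50 derived from several concentrations.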

[1] = Inhibition of linoleic acid lipid peroxidation (AAPH)
How it was run: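 Sodium linoleate oxidation was initiated by AAPH in 0.05 M phosphate buffer, pH 7.4, at 37 °C, with test compound present and DMSO as blank. Conjugated diene hydroperoxide formation was followed as the absorbance increase at 234 nm.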

[2] = Lipophilicity as RM values by RP-TLC; format: physicochemical; set-up: key: RM = log[(1/Rf) − 1]; settings: methanol/water 70/30, SD < 10%
How it was run: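 Reversed-phase TLC on silica gel plates impregnated with 5% (v/v) liquid paraffin, methanol/water 70/30 (v/v) mobile phase, saturated tanks at 24 °C, UV detection. RM = log[(1/Rf) − 1] from five Rf measurements.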

[3] = ABTS•+ decolorization assay
How it was run: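 Compounds (10 mM DMSO stocks, diluted) added to ABTS•+ radical generated by potassium persulfate oxidation of ABTS. Decolorization followed as absorbance at room temperature, with Trolox as standard.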

| Compound | % LOX Inhb. @ 100 μM (soybean lipoxygenase; soybean LOX) | pIC50 (soybean lipoxygenase; soybean LOX, read-out: LOX IC50) | AAPH% @ 100 μM (anti-lipid peroxidation) [1] | RM [2] | ABTS•+ Inhb. % @ 100 μM [3] | pIC50 (soybean lipoxygenase) |
| --- | --- | --- | --- | --- | --- | --- |
| O=C(/C=C/c1cccc2ccccc12)c1ccccc1O [b4, (E)-1-(2-hydroxyphenyl)-3-(naphthalen-1-yl) prop-2-en-1-one] | 82% | 4.19 | 82% | −0.03 | No |  |
| CC(=O)c1ccc(OCCCCCCCOc2ccc(C(C)=O)cc2)cc1 [dvi, 1,1′-((heptane-1,7-diylbis(oxy))bis-(4,1-phenylene)) diethanone] | 17% |  | 12% | 0.32 | No |  |
| CC(=O)c1ccc(OCCOc2ccc(C(C)=O)cc2)cc1 [di, 1,1′-((ethane-1,2-diylbis(oxy))bis(4,1-phenylene))diethanone] | 12% |  | 22% | 0.67 | No |  |
| O=C(/C=C/C=C/c1ccc([N+](=O)[O-])cc1)c1ccc(OCCCOc2ccc(C(=O)/C=C/C=C/c3ccc([N+](=O)[O-])cc3)cc2)cc1 [c11, (2E,2′E,4E,4′E)-1,1′-((propane-1,3-diylbis(oxy))bis(4,1-phenylene))bis(5-(4-nitrophenyl)penta-2,4-dien-1-one)] | 95% |  | 68% | −0.88 | No | 4.30 |
